US12233161B1, “Lipids and lipid nanoparticle formulations” (LONGUIDE BIOPHARMA CORPORATION, priority 2024, dated 2025)

Columns and labels:
mice [1] = experiment: In vivo delivery of FLuc-mRNA lipid nanoparticles in mice, in vivo imaging (IVIS)
Summary of the method: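 Mice (n=3) received about 75 μL FLuc-mRNA LNP per mouse intramuscularly (rectus femoris), intravenously (tail vein), intraperitoneally or subcutaneously (back). After injection, D-luciferin (200 μL, 15 mg/mL) was given i.p. 10-15 min before IVIS imaging.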

mice [2] = experiment: In vivo delivery of FLuc-circ-RNA lipid nanoparticles in mice; conditions: Fluc-circ-RNA LNP; for IVIS: organ not given
Experimental: Lipid nanoparticles loaded with nucleic acid drugs were prepared according to step 2, replacing FLuc-mRNA with FLuc-circ-RNA (Hongene Biotech Corporation, Shanghai). After formulation, the nanoparticles were administered via intramuscular injection (into the quadriceps femoris muscle of mice), intravenous injection (into the tail vein of mice), intraperitoneal injection, or subcutaneous injection (subcutaneously on the back). Approximately 75 μL was injected per mouse, with a total of 3 mice per group. In vivo imaging (PerkinElmer, IVIS Lumina III) was performed after a certain period of time. Ten to fifteen minutes before imaging, 200 μL of a 15 mg/mL D-Luciferin working solution was injected intraperitoneally, followed by imaging analysis using the in vivo imaging system.

[3] = Potential characterization of nucleic acid lipid nanoparticle preparations; format: physicochemical
Summary of the method: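 Nanoparticles (about 0.04 mg/mL mRNA) were diluted in ultrapure water for Malvern ZEN3700 measurement: 20 μL into 780 μL for potential alone, or 27.5 μL into 200 μL for DLS particle size followed by addition of 600 μL water for potential.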

[4] = Particle size and PDI of nucleic acid lipid nanoparticle preparations by dynamic light scattering; format: physicochemical
Summary of the method: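 Nanoparticle suspension (about 0.04 mg/mL mRNA) diluted in ultrapure water, mixed by gentle pipetting; particle size measured by dynamic light scattering. Zeta potential measured on the recovered sample after further dilution in ultrapure water.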

[5] = DMG-PEG2000:DSPC:Chol:compound 1.40:11.15:38.95:48.50, N/P 30
[6] = Fluc-circ-RNA LNP, preparation given IV
[7] = DMG-PEG2000:DSPC:Chol:compound 1.00:10.00:33.00:56.00, N/P 42
[8] = DMG-PEG2000:DSPC:Chol:compound 2.50:11.50:56.00:30.00, N/P 42
[9] = DMG-PEG2000:DSPC:Chol:Lipid 1.40:11.15:38.95:48.50, N/P 10, IV, liver
[10] = DMG-PEG2000:DSPC:Chol:Lipid 1.40:11.15:38.95:48.50, N/P 10, IV, lung
[11] = DMG-PEG2000:DSPC:Chol:Lipid 1.40:11.15:38.95:48.50, N/P 10, IV, spleen
[12] = DMG-PEG2000:DSPC:Chol:Lipid 1.40:11.15:38.95:48.50, N/P 10, mRNA LNP, preparation given IH
[13] = DMG-PEG2000:DSPC:Chol:Lipid 1.40:11.15:38.95:48.50, N/P 10, mRNA LNP, preparation given IV
[14] = Fluc-circ-RNA LNP, preparation given IM
[15] = DMG-PEG2000:DSPC:Chol:compound 1.40:11.15:38.95:48.50, N/P 20
[16] = mRNA LNP, 1.00:10.00:33.00:56.00, N/P 42, IV, liver
[17] = mRNA LNP, 1.00:10.00:33.00:56.00, N/P 42, IV, lung
[18] = mRNA LNP, 1.00:10.00:33.00:56.00, N/P 42, IV, spleen
[19] = mRNA LNP, 1.40:11.15:38.95:48.50, N/P 30, IV, liver
[20] = mRNA LNP, 1.40:11.15:38.95:48.50, N/P 30, IV, lung
[21] = mRNA LNP, 1.40:11.15:38.95:48.50, N/P 30, IV, spleen
[22] = mRNA LNP, 1.00:10.00:33.00:56.00, N/P 42
[23] = mRNA LNP, 1.40:11.15:38.95:48.50, N/P 30
[24] = DMG-PEG2000:DPPC:Chol:compound 1.40:11.15:38.95:48.50, N/P 30

SMILES: CCCCCCCCCCOC(=O)C(O)CN(CCCN(C)CCCN(CC(O)C(=O)OCCCCCCCCCC)CC(O)C(=O)OCCCCCCCCCC)CC(O)C(=O)OCCCCCCCCCC (centres unmarked) [Compound L0313]
- IVIS (mice [1]; IM, DMG-PEG2000:DSPC:Chol:compound 1.40:11.15:38.95:48.50, N/P 30, Fluc-mRNA): 7.43E+05
- IVIS (mice [1]; IV, body, DMG-PEG2000:DSPC:Chol:compound 1.00:10.00:33.00:56.00, N/P 42, Fluc-mRNA): 5.88E+07
- IVIS (mice [1]; IV, body, DMG-PEG2000:DSPC:Chol:compound 2.50:11.50:56.00:30.00, N/P 42, Fluc-mRNA): 5.20E+07
- % of organ targeting (mice [1]; IV, liver, DMG-PEG2000:DSPC:Chol:compound 1.00:10.00:33.00:56.00, N/P 42): 2.04%
- IVIS (mice [1]; IV, liver, DMG-PEG2000:DSPC:Chol:compound 1.00:10.00:33.00:56.00, N/P 42, Fluc-mRNA): 3.78E+06
- % of organ targeting (mice [1]; IV, liver, DMG-PEG2000:DSPC:Chol:compound 2.50:11.50:56.00:30.00, N/P 42): 6.90%
- IVIS (mice [1]; IV, liver, DMG-PEG2000:DSPC:Chol:compound 2.50:11.50:56.00:30.00, N/P 42, Fluc-mRNA): 8.68E+06
- % of organ targeting (mice [1]; IV, lung, DMG-PEG2000:DSPC:Chol:compound 1.00:10.00:33.00:56.00, N/P 42): 62.84%
- IVIS (mice [1]; IV, lung, DMG-PEG2000:DSPC:Chol:compound 1.00:10.00:33.00:56.00, N/P 42, Fluc-mRNA): 1.17E+08
- % of organ targeting (mice [1]; IV, lung, DMG-PEG2000:DSPC:Chol:compound 2.50:11.50:56.00:30.00, N/P 42): 1.10%
- IVIS (mice [1]; IV, lung, DMG-PEG2000:DSPC:Chol:compound 2.50:11.50:56.00:30.00, N/P 42, Fluc-mRNA): 1.38E+06
- % of organ targeting (mice [1]; IV, spleen, DMG-PEG2000:DSPC:Chol:compound 1.00:10.00:33.00:56.00, N/P 42): 35.12%
- IVIS (mice [1]; IV, spleen, DMG-PEG2000:DSPC:Chol:compound 1.00:10.00:33.00:56.00, N/P 42, Fluc-mRNA): 6.52E+07
- % of organ targeting (mice [1]; IV, spleen, DMG-PEG2000:DSPC:Chol:compound 2.50:11.50:56.00:30.00, N/P 42): 92.00%
- IVIS (mice [1]; IV, spleen, DMG-PEG2000:DSPC:Chol:compound 2.50:11.50:56.00:30.00, N/P 42, Fluc-mRNA): 1.16E+08
- % of organ targeting (mice [2]; IV, liver): 3.39%
- % of organ targeting (mice [2]; IV, lung): 20.55%
- % of organ targeting (mice [2]; IV, spleen): 76.06%
- Zeta potential (mV) [3, 5]: 13.57 mV
- Zeta potential (mV) [3, 6]: 9.98 mV
- PDI [4, 7]: 0.17
- Particle size (nm) [4, 7]: 75.31 nm
- PDI [4, 5]: 0.18
- Particle size (nm) [4, 5]: 111.20 nm
- PDI [4, 8]: 0.17
- Particle size (nm) [4, 8]: 82.60 nm
- PDI [4, 6]: 0.2
- Particle size (nm) [4, 6]: 115.97 nm

SMILES: CCCCCCCCCCCOC(=O)CCCCCN(CCO)CCCCCCCC(=O)OC(CCCCCCCC)CCCCCCCC [SM-102, reference compound]
- IVIS (mice [1]; DMG-PEG2000:DSPC:Chol:Lipid 1.40:11.15:38.95:48.50, N/P 10, IH, whole body scan): 1.62 × 10^7
- IVIS (mice [1]; DMG-PEG2000:DSPC:Chol:Lipid 1.40:11.15:38.95:48.50, N/P 10, IM, whole body scan): 6.67 × 10^7
- IVIS (mice [1]; DMG-PEG2000:DSPC:Chol:Lipid 1.40:11.15:38.95:48.50, N/P 10, IV, body): 1.02 × 10^8
- % of organ targeting (mice [1]; [9]): 61.21%
- IVIS (mice [1]; [9]): 1.99 × 10^7
- % of organ targeting (mice [1]; [10]): 0.96%
- IVIS (mice [1]; [10]): 3.11 × 10^5
- % of organ targeting (mice [1]; [11]): 37.83%
- IVIS (mice [1]; [11]): 1.23 × 10^7
- tissue-targeting specificity (lung vs spleen depending on molar percentage of compound) (mice [1]; certain formulations, Table 2): not observed
- IVIS (mice [2]; IM): 2.06E+09
- IVIS (mice [2]; IV): 1.06E+09
- PDI [4, 12]: 0.16 ± 0.01
- Particle size [4, 12]: 127.47 ± 2.05 nm
- Particle size ([4]; DMG-PEG2000:DSPC:Chol:Lipid 1.40:11.15:38.95:48.50, N/P 10, mRNA LNP, preparation given IM): 111.27 ± 0.84 nm
- PDI [4, 13]: 0.06 ± 0.02
- Particle size [4, 13]: 131.20 ± 1.25 nm
- PDI [4, 14]: 0.09
- Particle size (nm) [4, 14]: 90.08 nm
- PDI [4, 6]: 0.19
- Particle size (nm) [4, 6]: 65.67 nm

SMILES: CCCCCCCCCCNC(=O)C(O)CN(CCCCCN(CC(O)C(=O)NCCCCCCCCCC)CC(O)C(=O)NCCCCCCCCCC)CC(O)C(=O)NCCCCCCCCCC (centres unmarked) [Compound L0320]
- IVIS (mice [1]; IM, DMG-PEG2000:DSPC:Chol:compound 1.40:11.15:38.95:48.50, N/P 20, Fluc-mRNA): 1.45E+05
- IVIS (mice [1]; IV, organ not given, DMG-PEG2000:DSPC:Chol:compound 1.40:11.15:38.95:48.50, N/P 20, Fluc-mRNA): 6.60E+05
- Zeta potential (mV) [3, 15]: 10.39 mV
- PDI [4, 15]: 0.10
- Particle size (nm) [4, 15]: 120.33 nm

SMILES: CCCCCCCCCCCCNC(=O)CCN(CCCN(C)CCCN(CCC(=O)NCCCCCCCCCCCC)CCC(=O)NCCCCCCCCCCCC)CCC(=O)NCCCCCCCCCCCC [L0263-Control, reference compound]
- % of organ targeting (mice [1]; [16]): 0.59%
- IVIS (mice [1]; [16]): 5.33E+06
- % of organ targeting (mice [1]; [17]): 97.16%
- IVIS (mice [1]; [17]): 8.80E+08
- % of organ targeting (mice [1]; [18]): 2.25%
- IVIS (mice [1]; [18]): 2.04E+07
- IVIS (mice [1]; mRNA LNP, 1.40:11.15:38.95:48.50, N/P 30, IM, organ not given): 7.79E+05
- % of organ targeting (mice [1]; [19]): 1.59%
- IVIS (mice [1]; [19]): 3.11E+06
- % of organ targeting (mice [1]; [20]): 80.11%
- IVIS (mice [1]; [20]): 1.57E+08
- % of organ targeting (mice [1]; [21]): 18.30%
- IVIS (mice [1]; [21]): 3.59E+07
- IVIS (mice [1]; mRNA LNP, DMG-PEG2000:DSPC:Chol:lipid 1.00:10.00:33.00:56.00, N/P 42, IV, body): 1.28E+08
- IVIS (mice [1]; mRNA LNP, DMG-PEG2000:DSPC:Chol:lipid 1.40:11.15:38.95:48.50, N/P 30, IV, body): 5.69E+07
- Zeta potential (mV) [3, 22]: 11.13 mV
- Zeta potential (mV) [3, 23]: 10.97 mV
- PDI [4, 22]: 0.13
- Particle size (nm) [4, 22]: 112.27 nm
- PDI [4, 23]: 0.16
- Particle size (nm) [4, 23]: 102.50 nm

SMILES: CCCCCCCCCCCCN(C)C(=O)C(O)CN(CCCN(C)CCCN(CC(O)C(=O)N(C)CCCCCCCCCCCC)CC(O)C(=O)N(C)CCCCCCCCCCCC)CC(O)C(=O)N(C)CCCCCCCCCCCC (centres unmarked) [Compound L0345]
- IVIS (mice [1]; IM, DMG-PEG2000:DPPC:Chol:compound 1.40:11.15:38.95:48.50, N/P 30, Fluc-mRNA): 3.56E+05
- IVIS (mice [1]; IV, body, DMG-PEG2000:DPPC:Chol:compound 1.40:11.15:38.95:48.50, N/P 30, Fluc-mRNA): 2.28E+06
- % of organ targeting (mice [1]; IV, liver, DMG-PEG2000:DPPC:Chol:compound 1.40:11.15:38.95:48.50, N/P 30): 1.89%
- IVIS (mice [1]; IV, liver, DMG-PEG2000:DPPC:Chol:compound 1.40:11.15:38.95:48.50, N/P 30, Fluc-mRNA): 1.27E+05
- % of organ targeting (mice [1]; IV, lung, DMG-PEG2000:DPPC:Chol:compound 1.40:11.15:38.95:48.50, N/P 30): 90.22%
- IVIS (mice [1]; IV, lung, DMG-PEG2000:DPPC:Chol:compound 1.40:11.15:38.95:48.50, N/P 30, Fluc-mRNA): 6.05E+06
- % of organ targeting (mice [1]; IV, spleen, DMG-PEG2000:DPPC:Chol:compound 1.40:11.15:38.95:48.50, N/P 30): 7.89%
- IVIS (mice [1]; IV, spleen, DMG-PEG2000:DPPC:Chol:compound 1.40:11.15:38.95:48.50, N/P 30, Fluc-mRNA): 5.29E+05
- Zeta potential (mV) [3, 24]: 10.25 mV
- PDI [4, 24]: 0.19
- Particle size (nm) [4, 24]: 81.64 nm
